Data from patent US7166584B1, “Cholesterol transport gene” (Wisconsin Alumni Research Foundation, priority 1999, dated 2007).

Legend:
[1] = target: T1, ABC1 (Mus musculus, UniProt P41233); design: host or cells: frog oocytes; conditions: frog oocytes induced to express ABC1; Becq et al. 1997; cited from earlier work
Target sequence in this assay (P41233 61-2261 limits assumed): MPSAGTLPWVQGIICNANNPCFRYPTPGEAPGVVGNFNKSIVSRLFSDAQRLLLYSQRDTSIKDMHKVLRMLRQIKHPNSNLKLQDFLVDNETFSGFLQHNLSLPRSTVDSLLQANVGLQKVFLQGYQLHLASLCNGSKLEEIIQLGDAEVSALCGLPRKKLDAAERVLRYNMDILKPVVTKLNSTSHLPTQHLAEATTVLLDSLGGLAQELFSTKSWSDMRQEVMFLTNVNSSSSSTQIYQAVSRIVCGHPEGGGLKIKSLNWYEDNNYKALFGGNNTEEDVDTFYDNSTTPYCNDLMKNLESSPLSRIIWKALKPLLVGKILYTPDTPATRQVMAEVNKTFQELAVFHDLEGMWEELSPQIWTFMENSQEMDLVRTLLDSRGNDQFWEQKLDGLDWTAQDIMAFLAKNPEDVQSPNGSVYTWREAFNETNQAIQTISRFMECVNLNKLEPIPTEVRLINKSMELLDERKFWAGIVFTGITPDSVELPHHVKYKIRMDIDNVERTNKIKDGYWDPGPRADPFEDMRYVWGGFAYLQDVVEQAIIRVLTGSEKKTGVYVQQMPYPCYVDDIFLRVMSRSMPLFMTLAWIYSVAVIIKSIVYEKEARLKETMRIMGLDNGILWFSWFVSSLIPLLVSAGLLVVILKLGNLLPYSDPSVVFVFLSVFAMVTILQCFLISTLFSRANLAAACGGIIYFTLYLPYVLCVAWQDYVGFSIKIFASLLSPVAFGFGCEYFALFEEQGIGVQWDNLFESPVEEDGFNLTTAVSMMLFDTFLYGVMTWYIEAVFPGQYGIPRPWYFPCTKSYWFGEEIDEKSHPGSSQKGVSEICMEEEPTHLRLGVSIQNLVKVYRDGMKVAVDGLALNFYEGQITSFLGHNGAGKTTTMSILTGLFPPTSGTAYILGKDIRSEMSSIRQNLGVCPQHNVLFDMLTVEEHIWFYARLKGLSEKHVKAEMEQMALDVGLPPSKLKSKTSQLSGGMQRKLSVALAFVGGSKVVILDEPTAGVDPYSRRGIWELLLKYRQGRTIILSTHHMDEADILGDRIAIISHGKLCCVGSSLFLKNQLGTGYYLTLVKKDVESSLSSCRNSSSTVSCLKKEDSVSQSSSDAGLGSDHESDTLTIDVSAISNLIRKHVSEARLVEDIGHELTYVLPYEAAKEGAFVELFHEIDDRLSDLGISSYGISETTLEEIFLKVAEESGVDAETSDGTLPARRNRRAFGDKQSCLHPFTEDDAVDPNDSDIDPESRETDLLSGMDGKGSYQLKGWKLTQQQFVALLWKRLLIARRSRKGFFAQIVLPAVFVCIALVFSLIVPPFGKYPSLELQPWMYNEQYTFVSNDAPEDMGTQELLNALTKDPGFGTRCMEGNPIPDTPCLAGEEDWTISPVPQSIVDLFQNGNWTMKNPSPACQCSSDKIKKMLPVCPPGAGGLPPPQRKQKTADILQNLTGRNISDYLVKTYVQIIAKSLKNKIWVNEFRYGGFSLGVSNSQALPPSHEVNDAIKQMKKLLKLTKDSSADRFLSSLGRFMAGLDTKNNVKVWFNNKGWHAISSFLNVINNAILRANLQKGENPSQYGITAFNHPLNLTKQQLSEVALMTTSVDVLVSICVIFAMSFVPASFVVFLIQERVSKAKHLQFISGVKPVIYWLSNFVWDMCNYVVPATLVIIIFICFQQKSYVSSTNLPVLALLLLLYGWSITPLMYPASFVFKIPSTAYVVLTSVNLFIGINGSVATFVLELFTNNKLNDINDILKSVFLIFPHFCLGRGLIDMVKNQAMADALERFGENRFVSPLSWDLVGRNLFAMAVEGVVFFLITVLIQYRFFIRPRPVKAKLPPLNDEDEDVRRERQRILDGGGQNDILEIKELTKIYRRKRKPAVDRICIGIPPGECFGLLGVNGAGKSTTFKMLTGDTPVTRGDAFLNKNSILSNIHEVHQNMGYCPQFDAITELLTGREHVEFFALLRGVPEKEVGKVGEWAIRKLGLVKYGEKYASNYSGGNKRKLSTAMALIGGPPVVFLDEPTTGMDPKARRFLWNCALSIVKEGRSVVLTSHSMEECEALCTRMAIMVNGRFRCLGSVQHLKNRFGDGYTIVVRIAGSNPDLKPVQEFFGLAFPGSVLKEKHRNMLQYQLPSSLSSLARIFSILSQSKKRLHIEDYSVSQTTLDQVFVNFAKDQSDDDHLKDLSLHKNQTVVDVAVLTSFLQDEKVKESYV

[2] = target: T1, ABC1; test: Cholesterol efflux from 3H-cholesterol-labeled J774 macrophages to apolipoprotein-A1; format: cell-based; design: Mouse macrophages (J774) were labeled with ^3H-cholesterol; endogenous in cells; host or cells: J774 mouse macrophages; conditions: 20 μg/ml human apolipoprotein-A1, indicated concentrations, 24 hours, data only in FIG. 4
From the text: A cholesterol efflux assay measures the ability of cells to transfer cholesterol to an extracellular acceptor molecule and is dependent on ABC1 function. A standard cholesterol efflux assay is set out in Marcil et al., Arterioscler. Thromb. Vasc. Biol. 19:159–169, 1999, incorporated by reference herein for all purposes. Prior to this invention, this assay has not been used to identify compounds useful for reducing cholesterol transport from the gut to the blood or lymph, or for reducing LDL or serum cholesterol levels.
In this procedure, cells are loaded with radiolabeled cholesterol by any of several biochemical pathways. Cholesterol efflux of cells is measured after incubation for various times (typically 0 to 24 hours) in the presence of HDL3 or purified ApoAI. Cholesterol efflux is determined as the percentage of total cholesterol in the culture medium after various times of incubation. Increased ABC1 expression levels and/or biological activity are associated with increased efflux while decreased levels of ABC1 expression and/or biological activity are associated with decreased cholesterol efflux.
ABC1 activity can be inhibited genetically or chemically. […] After 24 hours, the medium was collected, centrifuged, and an aliquot collected for radioactivity determination by liquid scintillation counting. […]
Target sequence in this assay (P41233 whole entry): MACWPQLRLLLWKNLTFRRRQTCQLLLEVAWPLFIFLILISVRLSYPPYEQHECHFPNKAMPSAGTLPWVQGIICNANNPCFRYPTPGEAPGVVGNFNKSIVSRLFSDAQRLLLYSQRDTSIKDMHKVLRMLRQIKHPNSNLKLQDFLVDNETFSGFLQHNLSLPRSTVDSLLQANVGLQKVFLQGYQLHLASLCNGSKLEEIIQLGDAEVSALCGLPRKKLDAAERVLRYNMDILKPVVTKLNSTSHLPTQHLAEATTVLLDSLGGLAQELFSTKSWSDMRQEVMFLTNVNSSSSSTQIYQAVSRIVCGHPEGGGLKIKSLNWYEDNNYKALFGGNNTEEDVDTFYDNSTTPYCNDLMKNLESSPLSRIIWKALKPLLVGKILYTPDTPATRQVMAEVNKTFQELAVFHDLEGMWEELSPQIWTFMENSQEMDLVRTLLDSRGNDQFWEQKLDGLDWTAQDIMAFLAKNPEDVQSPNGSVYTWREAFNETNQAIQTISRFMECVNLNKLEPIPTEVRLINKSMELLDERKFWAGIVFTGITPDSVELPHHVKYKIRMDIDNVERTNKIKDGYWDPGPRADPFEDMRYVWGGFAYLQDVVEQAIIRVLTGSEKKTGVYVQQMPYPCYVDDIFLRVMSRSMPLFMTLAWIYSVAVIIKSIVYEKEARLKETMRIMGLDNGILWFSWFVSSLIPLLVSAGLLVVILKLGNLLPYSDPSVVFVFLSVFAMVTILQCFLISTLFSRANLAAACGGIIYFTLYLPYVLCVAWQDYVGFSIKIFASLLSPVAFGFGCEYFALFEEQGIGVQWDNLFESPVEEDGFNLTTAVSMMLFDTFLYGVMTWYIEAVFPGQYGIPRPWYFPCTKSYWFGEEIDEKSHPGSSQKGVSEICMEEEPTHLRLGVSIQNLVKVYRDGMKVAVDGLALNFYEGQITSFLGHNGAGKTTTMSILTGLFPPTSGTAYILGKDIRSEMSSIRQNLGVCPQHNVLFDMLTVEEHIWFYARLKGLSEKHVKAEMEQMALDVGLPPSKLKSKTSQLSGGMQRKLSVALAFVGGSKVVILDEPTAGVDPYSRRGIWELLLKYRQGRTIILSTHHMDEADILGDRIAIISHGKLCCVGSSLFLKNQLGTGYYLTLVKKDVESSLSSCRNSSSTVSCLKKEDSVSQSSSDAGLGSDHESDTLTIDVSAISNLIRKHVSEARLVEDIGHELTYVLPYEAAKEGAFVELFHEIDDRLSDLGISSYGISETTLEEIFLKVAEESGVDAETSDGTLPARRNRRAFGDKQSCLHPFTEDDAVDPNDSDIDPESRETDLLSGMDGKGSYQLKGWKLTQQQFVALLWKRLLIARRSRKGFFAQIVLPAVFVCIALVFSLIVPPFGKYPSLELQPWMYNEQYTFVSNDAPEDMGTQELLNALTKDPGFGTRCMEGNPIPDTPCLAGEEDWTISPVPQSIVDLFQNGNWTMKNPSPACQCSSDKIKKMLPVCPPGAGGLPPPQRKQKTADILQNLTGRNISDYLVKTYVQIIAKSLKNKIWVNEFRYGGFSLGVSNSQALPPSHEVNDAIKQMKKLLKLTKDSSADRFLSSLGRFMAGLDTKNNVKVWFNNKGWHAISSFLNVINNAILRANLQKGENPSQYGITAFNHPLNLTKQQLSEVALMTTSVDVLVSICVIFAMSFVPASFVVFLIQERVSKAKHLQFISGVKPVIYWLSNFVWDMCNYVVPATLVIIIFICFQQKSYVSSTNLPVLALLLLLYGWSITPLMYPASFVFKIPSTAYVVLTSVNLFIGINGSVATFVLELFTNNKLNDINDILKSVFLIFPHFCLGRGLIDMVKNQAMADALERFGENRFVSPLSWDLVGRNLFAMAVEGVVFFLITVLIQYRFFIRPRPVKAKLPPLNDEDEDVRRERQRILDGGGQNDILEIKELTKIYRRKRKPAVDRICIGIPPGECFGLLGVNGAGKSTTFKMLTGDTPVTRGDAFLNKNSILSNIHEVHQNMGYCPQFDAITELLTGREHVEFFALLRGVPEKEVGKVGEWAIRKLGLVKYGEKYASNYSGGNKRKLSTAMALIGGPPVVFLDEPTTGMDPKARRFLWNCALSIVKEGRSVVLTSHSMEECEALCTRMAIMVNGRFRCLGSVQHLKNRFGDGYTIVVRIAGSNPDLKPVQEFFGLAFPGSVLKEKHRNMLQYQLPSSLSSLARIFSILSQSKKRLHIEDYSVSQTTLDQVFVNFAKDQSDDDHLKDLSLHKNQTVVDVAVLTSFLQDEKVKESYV

COc1ccc(Cl)cc1C(=O)NCCc1ccc(S(=O)(=O)NC(=O)NC2CCCCC2)cc1 [Glyburide]
Inhibition of iodide transport [1]: inhibit iodide transport
Inhibition of ABC1 activity (cholesterol efflux) [2]: inhibit ABC1 activity
